Results from the supplement of paper PMC10307832.

Assays:
Experiment in all cases: relative viability (nuclei count vs DMSO), 5 days (fraction); higher = more cells survive
QS11 + Alpelisib = compound: C1CC2=C(C1)C=C(C=C2)OC3=NC(=C4C(=N3)N(C=N4)CC5=CC=C(C=C5)C6=CC=CC=C6)N[C@@H](CC7=CC=CC=C7)CO [QS11] + Cc1nc(NC(=O)N2CCC[C@H]2C(N)=O)sc1-c1ccnc(C(C)(C)C(F)(F)F)c1 [Alpelisib] (partner 2 µM)
Outline: (§1)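 Nuclei were stained with Hoechst during a one-step fixation (final 0.05% Triton X-100, 1% formaldehyde, 1 ug/ml Hoechst) carried out 5 days after dosing, then counted on 4× images. The cells, lung cancer lines in 1536-well plates, had been dosed by pin tool the day after seeding with one drug alone or a fixed anchor-drug dose plus five library-drug doses (not always all listed) in √10 steps. Relative viability is the nuclei count in treated wells divided by that in vehicle wells, and each value is the median of duplicate plates.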

QS11 + Dasatinib = compound: C1CC2=C(C1)C=C(C=C2)OC3=NC(=C4C(=N3)N(C=N4)CC5=CC=C(C=C5)C6=CC=CC=C6)N[C@@H](CC7=CC=CC=C7)CO [QS11] + Cc1nc(Nc2ncc(C(=O)Nc3c(C)cccc3Cl)s2)cc(N2CCN(CCO)CC2)n1 [Dasatinib] (partner 0.075 µM)
Outline: as §1

AZ628 + OSI-027 = compound: CC1=C(C=C(C=C1)NC(=O)C2=CC(=CC=C2)C(C)(C)C#N)NC3=CC4=C(C=C3)N=CN(C4=O)C [AZ628] + COc1cccc2cc(-c3nc([C@H]4CC[C@H](C(=O)O)CC4)n4ncnc(N)c34)[nH]c12 [OSI-027] (partner 0.5 µM)
Outline: as §1

AZ628 + Pemetrexed = compound: CC1=C(C=C(C=C1)NC(=O)C2=CC(=CC=C2)C(C)(C)C#N)NC3=CC4=C(C=C3)N=CN(C4=O)C [AZ628] + Nc1nc2[nH]cc(CCc3ccc(C(=O)N[C@@H](CCC(=O)O)C(=O)O)cc3)c2c(=O)[nH]1 [Pemetrexed] (partner 0.2 µM)
Outline: as §1

Row | Cell Line | relative viability (QS11 + Alpelisib; first compound 0.08 µM) | relative viability (QS11 + Alpelisib; first compound 0.253 µM) | relative viability (QS11 + Alpelisib; first compound 0.8 µM) | relative viability (QS11 + Alpelisib; first compound 2.53 µM) | relative viability (QS11 + Alpelisib; first compound 8 µM) | relative viability (QS11 + Dasatinib; first compound 0.08 µM) | relative viability (QS11 + Dasatinib; first compound 0.253 µM) | relative viability (QS11 + Dasatinib; first compound 0.8 µM) | relative viability (QS11 + Dasatinib; first compound 2.53 µM) | relative viability (QS11 + Dasatinib; first compound 8 µM) | relative viability (AZ628 + OSI-027; first compound 0.08 µM) | relative viability (AZ628 + OSI-027; first compound 0.253 µM) | relative viability (AZ628 + OSI-027; first compound 0.8 µM) | relative viability (AZ628 + OSI-027; first compound 2.53 µM) | relative viability (AZ628 + OSI-027; first compound 8 µM) | relative viability (AZ628 + Pemetrexed; first compound 0.08 µM) | relative viability (AZ628 + Pemetrexed; first compound 0.253 µM) | relative viability (AZ628 + Pemetrexed; first compound 0.8 µM) | relative viability (AZ628 + Pemetrexed; first compound 2.53 µM) | relative viability (AZ628 + Pemetrexed; first compound 8 µM)
1 | NCI-H1563 | 0.902 | 0.931 | 1.02 | 0.831 | 0.749 | 0.448 | 0.417 | 0.44 | 0.409 | 0.426 | 0.787 | 0.726 | 0.718 | 0.788 | 0.792 | 0.773 | 0.827 | 0.86 | 0.756 | 0.764
2 | HCC-827 | 0.907 | 1.02 | 0.931 | 1.05 | 1.01 | 0.244 | 0.26 | 0.386 | 0.305 | 0.328 | 0.741 | 0.82 | 0.796 | 0.703 | 0.418 | 0.258 | 0.209 | 0.256 | 0.314 | 0.226
3 | NCI-H1666 | 0.917 | 1.03 | 0.708 | 0.587 | 0.382 | 0.783 | 0.839 | 0.568 | 0.583 | 0.528 | 0.827 | 0.789 | 0.676 | 0.744 | 0.656 | 0.788 | 0.79 | 0.766 | 0.788 | 0.715
4 | NCI-H322M | 0.84 | 0.83 | 0.87 | 0.863 | 0.867 | 0.264 | 0.261 | 0.27 | 0.292 | 0.318 | 0.503 | 0.534 | 0.541 | 0.532 | 0.482 | 0.726 | 0.664 | 0.604 | 0.642 | 0.558
5 | NCI-H838 | 1.1 | 0.954 | 0.755 | 0.919 | 0.884 | 0.271 | 0.312 | 0.357 | 0.27 | 0.276 | 0.487 | 0.413 | 0.303 | 0.325 | 0.354 | 0.261 | 0.23 | 0.243 | 0.242 | 0.225
6 | NCI-H2228 | 0.705 | 0.854 | 0.762 | 1.14 | 1.11 | 0.415 | 0.521 | 0.55 | 0.725 | 0.677 | 0.627 | 0.521 | 0.519 | 0.623 | 0.281 | 0.348 | 0.296 | 0.351 | 0.355 | 0.234
7 | NCI-H596 | 0.4 | 0.494 | 0.467 | 0.468 | 0.443 | 0.591 | 0.586 | 0.584 | 0.611 | 0.586 | 0.715 | 0.67 | 0.818 | 0.721 | 0.528 | 0.496 | 0.485 | 0.521 | 0.525 | 0.521
8 | NCI-H647 | 1.24 | 1.25 | 1.02 | 1.08 | 0.862 | 0.164 | 0.219 | 0.216 | 0.184 | 0.205 | 0.666 | 0.722 | 0.495 | 0.537 | 0.462 | 0.201 | 0.17 | 0.179 | 0.161 | 0.151
9 | NCI-H441 | 0.785 | 0.843 | 0.784 | 0.794 | 0.706 | 0.802 | 0.689 | 0.496 | 0.786 | 0.827 | 0.801 | 0.558 | 0.634 | 0.588 | 0.492 | 0.279 | 0.252 | 0.235 | 0.263 | 0.26
